Data reported in ChEMBL document CHEMBL1201862, “PubChem BioAssay data set” (2004).
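96-well plates; 48 h exposure; 5 concentrations. Endpoints by linear interpolation between flanking doses. Not reached: highest tested concentration assigned. GI50 is the concentration that inhibits growth by half.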 Activity calls are given as the source filed them. Rule as the data show it: active = GI50 up to about 1.1 µM and inactive = higher.

Key:
Experiment in all cases: NCI-60 cell line screen, 48 h
[1] = tested on: DLD-1
[2] = tested on: LXFL 529
[3] = tested on: RXF 631
[4] = tested on: HOP-18
[5] = tested on: M19-MEL
[6] = tested on: DMS-273
[7] = tested on: XF498
[8] = tested on: DMS-114
[9] = tested on: SNB-78

Measured: GI50

COC(=O)C1CCC2(CC1)NC(=O)NC2=O (centres undefined)
inactive: [1] > 100 µM | [2] > 100 µM | [3] > 100 µM | [4] > 100 µM | [5] > 100 µM | [6] > 100 µM | [7] > 100 µM | [8] > 100 µM | [9] > 100 µM

CC(C)(C)N/N=C(\Cc1occc(=O)c1O)C(=O)Nc1ccc([N+](=O)[O-])cc1[N+](=O)[O-]
inactive: [2] > 100 µM | [3] > 100 µM | [4] > 100 µM | [5] > 100 µM | [6] > 100 µM | [7] > 100 µM | [8] > 100 µM | [9] > 100 µM

CC1(C)C2C=CC1C(=O)CC2 (centres undefined)
inactive: [1] > 100 µM | [2] > 100 µM | [3] > 100 µM | [4] > 100 µM | [6] > 100 µM | [7] > 100 µM | [9] > 100 µM

CCOC(=O)CCn1[nH]c(=O)c(Cl)c(Cl)c1=O
inactive: [1] > 100 µM | [2] > 100 µM | [3] > 100 µM | [4] > 100 µM | [5] > 100 µM | [6] > 100 µM | [7] > 100 µM | [8] > 100 µM | [9] > 100 µM

COC(=O)/C=C\C1C(C(=O)OC)C2(C(=O)OC)CCC1(C(=O)OC)N2 (centres undefined)
inactive: [1] 3.25 µM | [2] 6.75 µM | [3] 20.8 µM | [4] 15.1 µM | [5] 14.7 µM | [6] 18.2 µM | [7] 19.1 µM | [9] 10.2 µM

N#Cc1cnsc1
inactive: [1] > 100 µM | [2] > 100 µM | [3] > 100 µM | [4] > 100 µM | [5] > 100 µM | [6] > 100 µM | [7] > 100 µM | [8] > 100 µM | [9] > 100 µM

O=C(CCBr)N1CCN(C(=O)CCBr)CC1 [PIPOBROMAN]
inactive: [1] 90.2 µM | [2] 71.6 µM | [3] 55.1 µM | [4] 121 µM | [5] 86.9 µM | [6] 28.8 µM | [7] 66.7 µM | [8] 50.6 µM | [9] 114 µM
